{"source": "patent US10010585B2", "about": "“Methods of treating vestibular schwannoma and reducing hearing or neurite loss caused by vestibular schwannoma” (Massachusetts Eye and Ear Infirmary, priority 2014, dated 2018)", "key": {"[1]": {"system": "cochlear explant cultures (hair cells and neurites)", "test": "Murine cochlear explant culture, hair cell, neurite and fiber damage counts", "type": "cell-based, CBA/CaJ mice", "settings": "1 mM gentamicin, basal turn", "text": "To develop an animal model to study hearing loss due to VS, cochlear explant cultures were established from postnatal CBA/CaJ mice aged P3-P5 (Jackson Laboratory, ME). Briefly, after decapitating the mouse, temporal bones were dissected from the skull in Hank's Balanced Salt Solution (Life Technologies, NY). The otic capsule encasing the cochlea was dissected out from each temporal bone. The otic capsule was carefully stripped away and the spiral ligament was peeled away from the entire cochlea, starting from the base. The basal turn of cochlea was then isolated using the dissecting knife (Fine Science Tools, CA), discarding the apical turn hook region. The tectorial membrane and the Reissner's membrane were removed, leaving the organ of Corti intact with the spiral ganglion neuron region. This explant was cultured onto a 10 mm glass coverslip coated with CellTak (BD Biosciences, CA, #354241) in a 35 mm culture dish with 4 wells. Cells were cultured in 98% DMEM, 1% ampicillin and 1% N2 supplement.\nTo assess FGF2's otoprotective effect, cochlear explant cultures were treated with recombinant human FGF2±gentamicin. After culturing the explants overnight, media fortified with FGF2 (100 ng/mL) was applied. Twenty-four hours later media fortified with gentamicin (1 mM) and FGF2 (100 ng/mL) was applied. […] Cochlear explants were fixed after an additional 24 hours of treatment, with total time being 48 hours.\nAfter treatment, the explants were fixed and stained with antibodies against myosin 7A (Myo7A, Proteus Biosciences, CA) and β-tubulin (Tuj1, Covance, MA) to identify hair cells (HCs) and neurons, respectively. The same immunofluorescence protocol as described in Example 1 was used, with the exceptions of omission of […] HCl incubation, usage of 5% NHS with 1% Triton-X for blocking solution and 1% NHS with 0.4% Triton-X solution for primary antibody incubation at room temperature (RT). Secondary antibodies (Alexa Flour 555 anti-mouse and Alexa Four 488 anti-rabbit) were purchased from Life Technologies. Cochlear explants were imaged using a Leica TCS SP5 Confocal microscope. Zoomed-in pictures for the region of organ of Corti, including neurites, were merged in a z-stack to obtain a z-axis projection image in the Leica software. The number of hair cells (HCs) and neurites were manually counted per 100 μm length along the cochlea, with 1-2 samplings per specimen.\nThe same general methodology for murine cochlear explant cultures as described in Example 5 was utilized. Cochlear explant cultures were established from P2-P3 mice. Importantly, instead of only culturing the basal turn, the apical turn was also isolated, providing two pieces per cochlea with a greater frequency range. After approximately 12 hours, the cochlear explant cultures were treated for 48 hours with tumor secretions diluted to half their concentration. The formulation was 46.5% tumor-conditioned DMEM, 46.5% plain DMEM, 5% FBS, 1% ampicillin and 1% N2 supplement. Cochlear explants were treated with control media in parallel, being 46.5% DMEM incubated without tumor, 46.5% plain DMEM, 5% FBS, 1% ampicillin and 1% N2 supplement. All reagents were purchased from Life Technologies, NY. Osmolality in the solutions was measured in samples using a vapor-pressure osmometer (standardized with 290 mOsm/kg of 0.1567M sodium chloride solution) before applying them onto cochlear explants. Extra formulation for each VS secretion was made to be tested on Milliplex arrays and ELISA. Milliplex array, containing FGF2, VEGF-A and HGF beads (Millipore) and human TNFα ELISA (R&D Systems) were conducted as directed by the manufacturer on VS secretions prior to being applied onto the cochlear explant cultures.\nCochlear explants were fixed 48 hours after treatment and the same methodology for VS secretion application as described in Example 5 was utilized. […]"}, "rat cochlear explants": {"system": "rat cochlear explants", "settings": "1 mM (Zheng and Gao, 1996); cited from earlier work"}}, "data": [{"substance": "gentamicin", "values": [{"measurement": "number of neurites per 100 μm", "setting": "[1]; NT 13.1±1.7", "result": "7.3±2.3", "unit": "per 100 μm"}, {"measurement": "total number of HCs per 100 μm length", "setting": "[1]; NT 49.1±8.7", "result": "10.4±7.0", "unit": "per 100 μm"}, {"measurement": "HC loss", "setting": "rat cochlear explants", "result": "almost complete HC loss"}, {"measurement": "neurites lost", "setting": "rat cochlear explants", "result": 25, "unit": "%"}]}]}
